Measured values as given in patent EP0431323A1, “Antitumor antibiotic BU-3983T” (priority 1989, dated 1991).
Read-outs that look alike come from different tables or passages of the source.

Columns and labels:
[1] = tested on: B16-F10 (murine melanoma)
Description: (§1) BU-3983T was tested for in vitro cytotoxicity against murine and human cell lines and for in vivo antitumor activity in mice. B16-F10 (murine melanoma) and Moser (human colorectal carcinoma) cells were grown to the logarithmic phase in the enriched Eagle minimum essential medium supplemented with fetal calf serum (FCS, 10%) and kanamycin (60 µg/ml), and HCT-116 (human colon carcinoma) were in McCoy's 5A medium supplemented with FCS (10%), penicillin (100 U/ml) and streptomycin (100 µg/ml). B16-F10, Moser and HCT-116 cells were harvested and implanted into wells of a 96-well microtiter plate at the inoculum sizes of 1.5 x 10⁴, 3 x 10⁴ and 3 x 10⁴ cells/ml, respectively. They were incubated with test materials at 37°C in humidified atmosphere of 5% CO₂ and 95% air for 72 hours. The cytotoxicity against tumor cells was determined colorimetrically at 540 nm after staining viable cells.

[2] = tested on: HCT-116 (human colon carcinoma); conditions: HCT-116 cells, 72 hours
Description: as §1

[3] = tested on: Moser (human colorectal carcinoma); conditions: Moser cells, 72 hours
Description: as §1

[4] = tested on: DNA synthesis in B16-F10 melanoma cells; assay: Inhibition of macromolecule synthesis: DNA (3H-thymidine incorporation); type: cell-based, murine; conditions: 4.5 hours + 30 minutes label
Description: (§3) B16-F10 cells (10⁵ cells/ml) were incubated with test materials at 37°C for 4.5 hours (for DNA synthesis) or 4 hours (for RNA and protein syntheses). Labelled precursor, ³H-thymidine, ¹⁴C-uridine or ³H-leucine was added to the culture and further incubated for 30 minutes (for DNA) or 60 minutes (for RNA and protein). After washing with chilled 5% trichloroacetic acid solution, the radioactivity incorporated into the acid-insoluble fraction of the tumor cells was determined by a liquid scintillation counter. Actinomycin D was used as a reference compound.

[5] = tested on: RNA synthesis in B16-F10 melanoma cells; assay: Inhibition of macromolecule synthesis: RNA (14C-uridine incorporation); type: cell-based, murine; conditions: 4 hours + 60 minutes label
Description: as §3

[6] = tested on: Protein synthesis in B16-F10 melanoma cells; assay: Inhibition of macromolecule synthesis: protein (3H-leucine incorporation); type: cell-based, murine
Description: as §3

B16 melanoma = assay: In vivo antitumor activity in tumor-bearing mice, B16 melanoma (ip); conditions: for Body weight change on day 5 / MST (Median survival time) / T/C: B16 melanoma ip, BDF₁ mice; for T/C: significant if T/C ≧ 125%
Description: (§2) In vivo antitumor activity of BU-3983T was examined using tumor-bearing mice. Male BDF₁ mice were intraperitoneally inoculated with 0.5 ml of 10% melanotic melanoma B16 brei, and female CDF₁ mice were intraperitoneally inoculated with 0.4 ml of diluted ascitic fluid containing 10⁶ lymphocytic leukemia P388 cells or 10⁵ lymphoid leukemia L1210 cells. Mitomycin C was used as a reference compound. Test compounds were intraperitoneally administered to the mice by the following treatment schedules: once a day on day 1 only (Q1D x 1), on days 1, 5 and 9 (Q4D x 3) or on days 1 to 9 (Q1D x 9). […]

P388 leukemia = assay: In vivo antitumor activity in tumor-bearing mice, P388 leukemia (ip); conditions: for Body weight change on day 4 / MST (Median survival time) / T/C: P388 leukemia ip, CDF₁ mice, Q1D x 1; for T/C: significant if T/C ≧ 125%
Description: as §2

L1210 leukemia = assay: In vivo antitumor activity in tumor-bearing mice, L1210 leukemia (ip); conditions: for Body weight change on day 4 / MST (Median survival time) / T/C: L1210 leukemia ip, CDF₁ mice, Q1D x 1; for T/C: significant if T/C ≧ 125%
Description: as §2

[7] = Antimicrobial activity (no method given)

CCC(C)CC(C)CC(C)/C=C(\C)C1OC(O)(C(C)(O)C(=O)NC2C(=O)N3NCCCC3C(=O)N(O)CC(=O)N(C)CC(=O)NCC(=O)N(C)CC(=O)OC2C(C)C)CCC1OC (centres unmarked) [BU-3983T]
IC₅₀ ([1]; B16-F10 cells, 72 hours): 0.004 µg/mL | times more potent against B16-F10 than against HCT-116 ([1]; ratio of IC₅₀ values, B16-F10 vs HCT-116): 10 times | times more potent against B16-F10 than against Moser ([1]; ratio of IC₅₀ values, B16-F10 vs Moser): 100 times | IC₅₀ [2]: 0.04 µg/mL | IC₅₀ [3]: 0.4 µg/mL | IC₅₀ DNA [4]: 0.26 µg/mL | IC₅₀ RNA [5]: 0.29 µg/mL | IC₅₀ Protein ([6]; 4 hours + 60 minutes label): >1.0 µg/mL | inhibition of protein synthesis ([6]; at 1.0 µg/ml): only weak inhibition | Body weight change on day 5 (B16 melanoma; 0.031 mg/kg/day ip, Q1D x 9): +1.0 g | MST (Median survival time) (B16 melanoma; 0.031 mg/kg/day ip, Q1D x 9): 16.0 days | T/C (B16 melanoma; 0.031 mg/kg/day ip, Q1D x 9): 110% | Body weight change on day 5 (B16 melanoma; 0.063 mg/kg/day ip, Q1D x 9): +1.0 g | MST (Median survival time) (B16 melanoma; 0.063 mg/kg/day ip, Q1D x 9): 17.5 days | T/C (B16 melanoma; 0.063 mg/kg/day ip, Q1D x 9): 121% | Body weight change on day 5 (B16 melanoma; 0.063 mg/kg/day ip, Q4D x 3): +0.5 g | MST (Median survival time) (B16 melanoma; 0.063 mg/kg/day ip, Q4D x 3): 14.0 days | T/C (B16 melanoma; 0.063 mg/kg/day ip, Q4D x 3): 108% | Body weight change on day 5 (B16 melanoma; 0.13 mg/kg/day ip, Q1D x 1): +0.5 g | MST (Median survival time) (B16 melanoma; 0.13 mg/kg/day ip, Q1D x 1): 14.0 days | T/C (B16 melanoma; 0.13 mg/kg/day ip, Q1D x 1): 108% | Body weight change on day 5 (B16 melanoma; 0.13 mg/kg/day ip, Q1D x 9): -0.3 g | MST (Median survival time) (B16 melanoma; 0.13 mg/kg/day ip, Q1D x 9): 19.0 days | T/C (B16 melanoma; 0.13 mg/kg/day ip, Q1D x 9): 131*² % | Body weight change on day 5 (B16 melanoma; 0.13 mg/kg/day ip, Q4D x 3): +0.0 g | MST (Median survival time) (B16 melanoma; 0.13 mg/kg/day ip, Q4D x 3): 15.0 days | T/C (B16 melanoma; 0.13 mg/kg/day ip, Q4D x 3): 115% | Body weight change on day 5 (B16 melanoma; 0.25 mg/kg/day ip, Q1D x 1): 0.0 g | MST (Median survival time) (B16 melanoma; 0.25 mg/kg/day ip, Q1D x 1): 17.0 days | T/C (B16 melanoma; 0.25 mg/kg/day ip, Q1D x 1): 131*² % | Body weight change on day 5 (B16 melanoma; 0.25 mg/kg/day ip, Q1D x 9): -1.0 g | MST (Median survival time) (B16 melanoma; 0.25 mg/kg/day ip, Q1D x 9): 19.5 days | T/C (B16 melanoma; 0.25 mg/kg/day ip, Q1D x 9): 138*² % | Body weight change on day 5 (B16 melanoma; 0.25 mg/kg/day ip, Q4D x 3): 0.0 g | MST (Median survival time) (B16 melanoma; 0.25 mg/kg/day ip, Q4D x 3): 16.0 days | T/C (B16 melanoma; 0.25 mg/kg/day ip, Q4D x 3): 123% | Body weight change on day 5 (B16 melanoma; 0.5 mg/kg/day ip, Q1D x 1): -1.0 g | MST (Median survival time) (B16 melanoma; 0.5 mg/kg/day ip, Q1D x 1): 17.0 days | T/C (B16 melanoma; 0.5 mg/kg/day ip, Q1D x 1): 131*² % | Body weight change on day 5 (B16 melanoma; 0.5 mg/kg/day ip, Q1D x 9): -4.0 g | MST (Median survival time) (B16 melanoma; 0.5 mg/kg/day ip, Q1D x 9): 20.0 days | T/C (B16 melanoma; 0.5 mg/kg/day ip, Q1D x 9): 148*² % | Body weight change on day 5 (B16 melanoma; 0.5 mg/kg/day ip, Q4D x 3): -0.5 g | MST (Median survival time) (B16 melanoma; 0.5 mg/kg/day ip, Q4D x 3): 19.0 days | T/C (B16 melanoma; 0.5 mg/kg/day ip, Q4D x 3): 146*² % | Body weight change on day 5 (B16 melanoma; 1 mg/kg/day ip, Q1D x 1): -4.0 g | MST (Median survival time) (B16 melanoma; 1 mg/kg/day ip, Q1D x 1): 16.5 days | T/C (B16 melanoma; 1 mg/kg/day ip, Q1D x 1): 127*² % | MST (Median survival time) (B16 melanoma; 1 mg/kg/day ip, Q1D x 9): Tox | T/C (B16 melanoma; 1 mg/kg/day ip, Q1D x 9): Tox | Body weight change on day 5 (B16 melanoma; 1 mg/kg/day ip, Q4D x 3): -2.3 g | MST (Median survival time) (B16 melanoma; 1 mg/kg/day ip, Q4D x 3): 17.5 days | T/C (B16 melanoma; 1 mg/kg/day ip, Q4D x 3): 135*² % | Body weight change on day 5 (B16 melanoma; 2 mg/kg/day ip, Q1D x 1): -4.8 g | MST (Median survival time) (B16 melanoma; 2 mg/kg/day ip, Q1D x 1): 21.0 days | T/C (B16 melanoma; 2 mg/kg/day ip, Q1D x 1): 162*² % | Body weight change on day 5 (B16 melanoma; 2 mg/kg/day ip, Q4D x 3): -4.0 g | MST (Median survival time) (B16 melanoma; 2 mg/kg/day ip, Q4D x 3): 18.0 days | T/C (B16 melanoma; 2 mg/kg/day ip, Q4D x 3): 138*² % | Body weight change on day 5 (B16 melanoma; 4 mg/kg/day ip, Q1D x 1): -5.3 g | MST (Median survival time) (B16 melanoma; 4 mg/kg/day ip, Q1D x 1): 19.0 days | T/C (B16 melanoma; 4 mg/kg/day ip, Q1D x 1): 146*² % | Body weight change on day 5 (B16 melanoma; 8 mg/kg/day ip, Q1D x 1): -5.3 g | MST (Median survival time) (B16 melanoma; 8 mg/kg/day ip, Q1D x 1): 17.5 days | T/C (B16 melanoma; 8 mg/kg/day ip, Q1D x 1): 135*² % | maximum T/C (B16 melanoma; B16 melanoma, by various treatment schedules (Q1D x 1, Q4D x 3, Q1D x 9), ip): 146-162% | Body weight change on day 4 (P388 leukemia; 0.25 mg/kg/day ip): +0.3 g | MST (Median survival time) (P388 leukemia; 0.25 mg/kg/day ip): 11.0 days | T/C (P388 leukemia; 0.25 mg/kg/day ip): 110% | Body weight change on day 4 (P388 leukemia; 0.5 mg/kg/day ip): -0.5 g | MST (Median survival time) (P388 leukemia; 0.5 mg/kg/day ip): 10.0 days | T/C (P388 leukemia; 0.5 mg/kg/day ip): 100% | Body weight change on day 4 (P388 leukemia; 1 mg/kg/day ip): -1.5 g | MST (Median survival time) (P388 leukemia; 1 mg/kg/day ip): 10.0 days | T/C (P388 leukemia; 1 mg/kg/day ip): 100% | Body weight change on day 4 (P388 leukemia; 2 mg/kg/day ip): -2.0 g | MST (Median survival time) (P388 leukemia; 2 mg/kg/day ip): 10.0 days | T/C (P388 leukemia; 2 mg/kg/day ip): 100% | Body weight change on day 4 (P388 leukemia; 4 mg/kg/day ip): -2.3 g | MST (Median survival time) (P388 leukemia; 4 mg/kg/day ip): 11.0 days | T/C (P388 leukemia; 4 mg/kg/day ip): 110% | Body weight change on day 4 (P388 leukemia; 8 mg/kg/day ip): -2.5 g | MST (Median survival time) (P388 leukemia; 8 mg/kg/day ip): 11.5 days | T/C (P388 leukemia; 8 mg/kg/day ip): 115% | prolongation of lifespan (P388 leukemia; P388 leukemia system, ip): no significant prolongation of lifespan | Body weight change on day 4 (L1210 leukemia; 0.25 mg/kg/day ip): +0.8 g | MST (Median survival time) (L1210 leukemia; 0.25 mg/kg/day ip): 8.0 days | T/C (L1210 leukemia; 0.25 mg/kg/day ip): 100% | Body weight change on day 4 (L1210 leukemia; 0.5 mg/kg/day ip): -0.5 g | MST (Median survival time) (L1210 leukemia; 0.5 mg/kg/day ip): 8.0 days | T/C (L1210 leukemia; 0.5 mg/kg/day ip): 100% | Body weight change on day 4 (L1210 leukemia; 1 mg/kg/day ip): -2.0 g | MST (Median survival time) (L1210 leukemia; 1 mg/kg/day ip): 8.0 days | T/C (L1210 leukemia; 1 mg/kg/day ip): 100% | Body weight change on day 4 (L1210 leukemia; 2 mg/kg/day ip): -2.0 g | MST (Median survival time) (L1210 leukemia; 2 mg/kg/day ip): 9.0 days | T/C (L1210 leukemia; 2 mg/kg/day ip): 113% | Body weight change on day 4 (L1210 leukemia; 4 mg/kg/day ip): -2.5 g | MST (Median survival time) (L1210 leukemia; 4 mg/kg/day ip): 9.5 days | T/C (L1210 leukemia; 4 mg/kg/day ip): 119% | MST (Median survival time) (L1210 leukemia; 8 mg/kg/day ip): Tox | T/C (L1210 leukemia; 8 mg/kg/day ip): Tox | prolongation of lifespan (L1210 leukemia; L1210 leukemia system, ip): no significant prolongation of lifespan | antimicrobial activity [7]: weak | solubility (in acetonitrile, methanol, chloroform, dimethyl sulfoxide and dimethylformamide): readily soluble | solubility (in n-butanol, ethanol and ethyl acetate): slightly soluble | solubility (in n-hexane and water): practically insoluble
